Experimental data reported in patent US9549895B2, “Methods and compositions for preserving the viability of photoreceptor cells” (Massachusetts Eye and Ear Infirmary, priority 2004, dated 2017).
Where “and” joins values, the source holds several entries; their conditions need not be identical. Identical values can stand only once.

What was measured:
[1] = biological target: T1, caspase 1 (Homo sapiens, UniProt P29466); details: cited from earlier work
T1 sequence (P29466 120-297 limits assumed): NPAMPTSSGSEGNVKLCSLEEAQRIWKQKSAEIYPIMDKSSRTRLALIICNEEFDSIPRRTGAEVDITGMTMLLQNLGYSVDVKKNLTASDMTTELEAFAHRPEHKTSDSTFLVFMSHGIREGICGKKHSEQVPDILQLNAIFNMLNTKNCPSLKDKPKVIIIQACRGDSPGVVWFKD
T1 sequence (P29466 317-404 limits assumed): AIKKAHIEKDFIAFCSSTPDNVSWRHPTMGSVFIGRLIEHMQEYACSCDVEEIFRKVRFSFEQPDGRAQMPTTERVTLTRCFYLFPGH

[2] = biological target: T2, caspase 4 (Homo sapiens, UniProt P49662); details: cited from earlier work
T2 sequence (P49662 81-270 limits assumed): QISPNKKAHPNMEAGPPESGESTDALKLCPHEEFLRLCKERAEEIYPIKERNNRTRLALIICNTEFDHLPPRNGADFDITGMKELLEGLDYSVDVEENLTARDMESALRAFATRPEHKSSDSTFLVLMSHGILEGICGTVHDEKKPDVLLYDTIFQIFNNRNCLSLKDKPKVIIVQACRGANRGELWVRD
T2 sequence (P49662 290-377 limits assumed): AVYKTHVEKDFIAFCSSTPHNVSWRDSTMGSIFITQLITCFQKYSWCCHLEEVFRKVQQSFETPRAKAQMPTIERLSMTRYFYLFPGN

[3] = biological target: T3, caspase 3 (Homo sapiens, UniProt P42574); details: cited from earlier work
T3 sequence (P42574 29-175 limits assumed): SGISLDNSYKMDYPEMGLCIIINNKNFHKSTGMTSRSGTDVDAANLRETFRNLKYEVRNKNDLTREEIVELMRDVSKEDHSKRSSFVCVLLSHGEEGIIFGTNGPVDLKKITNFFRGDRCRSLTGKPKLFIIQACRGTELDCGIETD
T3 sequence (P42574 176-277 limits assumed): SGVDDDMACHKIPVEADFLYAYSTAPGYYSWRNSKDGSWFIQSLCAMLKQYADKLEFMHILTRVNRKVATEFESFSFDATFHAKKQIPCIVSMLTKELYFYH

[4] = biological target: T4, caspase 7 (Homo sapiens, UniProt P55210); details: cited from earlier work
T4 sequence (P55210 24-198 limits assumed): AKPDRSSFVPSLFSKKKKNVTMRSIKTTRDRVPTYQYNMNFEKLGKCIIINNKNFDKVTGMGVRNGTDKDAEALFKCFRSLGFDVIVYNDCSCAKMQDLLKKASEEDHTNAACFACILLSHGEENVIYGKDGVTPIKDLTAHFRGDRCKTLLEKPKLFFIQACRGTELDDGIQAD
T4 sequence (P55210 207-303 limits assumed): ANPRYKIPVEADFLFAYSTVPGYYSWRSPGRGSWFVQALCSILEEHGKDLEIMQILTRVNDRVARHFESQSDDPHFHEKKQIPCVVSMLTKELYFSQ

[5] = test system: photoreceptor cell death (TUNEL-positive cells in the ONL); assay: TUNEL staining 24 hours after retinal detachment with subretinal administration of cytokines; assay type: in vivo, rat; details: subretinal 5 μl of 0.1 μg/μl, PBS control 15.3±5.4, n=7
Protocol: Retinal detachment was induced by subretinal injection of sodium hyaluronate. Retinal tissues were collected at various time points (1, 3, 6, 24, 72 hours) after inducing retinal detachment. Neural retina was homogenized, and mRNA expression was quantified by QPCR. To identify the cellular sources of expressed genes, samples from various retinal layers were obtained using LCM. Immunohistochemistry and Enzyme Linked-Immuno-Sorbent Assay (ELISA) were performed to show expressional changes of proteins. TUNEL staining was used in order to assess photoreceptor death induced by retinal detachment with or without subretinal administration of cytokines.
Fifty-five adult male Brown Norway rats (200-300 g, Charles River, Boston, Mass.) were used in this study. Rats were anesthetized with a 1:1 mixture of ketamine (100 mg/mL) and xylazine (20 mg/mL; both from Phoenix Pharmaceutical, St. Joseph, Mo.). Pupils were dilated with a topically applied mixture of phenylephrine (5.0%) and tropicamide (0.8%; Massachusetts Eye and Ear Infirmary internal formulary preparation). A sclerotomy was created approximately 2 mm posterior to the limbus with a 22-gauge needle. Care was taken not to damage the lens during creation of the sclerotomy. A Glaser subretinal injector (20-gauge shaft with a 32-gauge tip, BD Biosciences, San Jose, Calif.) connected to a syringe filled with 10 mg/mL Healon® sodium hyaluronate (Pharmacia and Upjohn Co., Kalamazoo, Mich.) was then introduced into the vitreous cavity. […]
Subretinal administration of select cytokines was performed following the creation of retinal detachment. […] TUNEL-positive cells were counted in a masked fashion, and standard error was determined.
To investigate effects of cytokines on photoreceptor cell death induced by retinal detachment, TUNEL staining was performed 24 hours after retinal detachment with subretinal administration of PBS, TNF-alpha (0.1 μg/μl), IL-1 beta (0.1 μg/μl), or MCP-1 (0.1 μg/μl). […] In the control condition with PBS, TUNEL-positive cells were detected in the ONL 24 hours after retinal detachment (15.3±5.4 cells/field, n=7). […]

[6] = test system: photoreceptor cell death (TUNEL-positive response in the ONL); assay: TUNEL analysis 72 hours after retinal detachment with subretinal TNF-alpha suppressing agents; assay type: in vivo, rat; details: subretinal 5 μl, 2 mg/mL, FIG. 12
Protocol: Retinal detachments were created only in the right eye of each animal, and the left eye served as a control. Following retinal detachment, various treatments were administered subretinally using a Hamilton syringe equipped with a 32-gauge needle. The tip of needle was introduced through a sclerotomy and retinal hole into the subretinal space, and 5 μl of solution, either normal goat serum (0.1 mg/mL), goat anti-TNF-alpha antibody (0.1 mg/mL), or etanercept (2 mg/mL), was injected over 3 minutes. Seventy-two hours after retinal detachment, the eyes were subjected to TUNEL analysis.

[7] = test system: photoreceptor cell death (TUNEL-positive cells); assay: TUNEL staining 72 hours after retinal detachment with intravitreal or subretinal PEDF; assay type: in vivo, rat; details: for difference in number of TUNEL-positive cells, intravitreally-injected control eyes versus intravitreally-injected PEDF eyes: intravitreal; for Number of TUNEL-Positive Cells, Mean: 72 hours
Protocol: In these experiments, retinal detachments were created in Brown Norway rats by injecting […] into the subretinal space using a transvitreous approach. Treatment with PEDF (BioProducts MD, Middletown, Md.) or control vehicle was administered immediately after detachment. In an initial set of experiments, the treatment groups included: intravitreal administration of 2.5 μg PEDF (n=6); intravitreal administration of 5.0 μg PEDF (n=9); subretinal administration of 2.5 μg PEDF (n=6); subretinal administration of 5.0 μg PEDF (n=9); intravitreal administration of control vehicle (n=3); and subretinal administration of control vehicle (n=3). In a second set of experiments, the treatment groups included: intravitreal administration of 5.0 μg PEDF (n=15); subretinal administration of 5.0 μg PEDF (n=15); intravitreal administration of control vehicle (n=9); and subretinal administration of control vehicle (n=9).
(§1) For both sets of experiments, all eyes were enucleated 72 hours after retinal detachment and embedded in paraffin. Four micron sections through the area of detachment, including the optic nerve, were obtained. Light microscopy was performed at 3× and at 32× magnification using hematoxylin-eosin staining. TUNEL staining was performed using a commercial kit (Oncogene, San Diego, Calif.) and viewed at 20× magnification using green fluorescein staining for TUNEL and blue DAPI nuclear staining. TUNEL-positive cells were counted per millimeter of tissue by a masked observer. The mean number of TUNEL-positive cells per millimeter of tissue was determined by averaging the number of TUNEL-positive cells per mm of tissue in three sections of each eye. Additionally, a realtime polymerase chain reaction (PCR) was performed for a variety of cytokines, including bFGF, TNF-alpha, and IL-1 beta, on extracted retina from normal eyes (n=6), untreated eyes with retinal detachment (n=6), PEDF-treated eyes with retinal detachment (n=6) and PBS-treated eyes with retinal detachment (n=6).

[8] = test system: mRNA levels of bFGF, TNF-alpha, IL-1 beta; assay: Realtime PCR of cytokine mRNA in detached retina after intravitreal PEDF; assay type: in vivo, rat; details: 5.0 μg intravitreal injection just after detachment versus PBS control; FIG. 16
Protocol: as §1
A realtime PCR was performed for a variety of cytokines, including bFGF, PEDF, TNF-alpha, IL-1 beta, HGF, CNTF, TGF beta, and IGF 1. The amount of each mRNA from each of six eyes treated with a 5.0 μg intravitreal injection of PEDF just after detachment was averaged. […]

## 2-Val-Ala-Asp-fluoromethylketone
[1]
  caspase inhibition: inhibits
[2]
  caspase inhibition: inhibits
[3]
  caspase inhibition: inhibits
[4]
  caspase inhibition: inhibits

## Ac-Tyr-Val-Ala-Asp-aldehyde
[1]
  Ki: 10 nM
[2]
  Ki: 10 nM
[3]
  Ki: ≥ 50 µM
[4]
  Ki: ≥ 50 µM

## MCP-1: rat recombinant MCP-1 administered subretinally
[5]
  number of TUNEL-positive cells in the ONL: 67.7±46.5 cells/field

## TNF-alpha
[5]
  number of TUNEL-positive cells in the ONL: did not change significantly

## etanercept
[6]
  TUNEL-positive response in the ONL as compared to controls: significantly decreased

B1: PEDF: pigment epithelium-derived factor (BioProducts MD), neurotrophic factor (protein, UniProt P36955 20-418, looked up)
Pigment epithelium-derived …: QNPASPPEEGSPDPDSTGALVEEEDPFFKVPVNKLAAAVSNFGYDLYRVRSSTSPTTNVLLSPLSVATALSALSLGAEQRTESIIHRALYYDLISSPDIHGTYKELLDTVTAPQKNLKSASRIVFEKKLRIKSSFVAPLEKSYGTRPRVLTGNPRLDLQEINNWVQAQMKGKLARSTKEIPDEISILLLGVAHFKGQWVTKFDSRKTSLEDFYLDEERTVRVPMMSDPKAVLRYGLDSDLSCKIAQLPLTGSMSIIFFLPLKVTQNLTLIEESLTSEFIHDIDRELKTVQAVLTVPKLKLSYEGEVTKSLQEMKLQSLFDSPDFSKITGKPIKLTQVEHRAGFEWNEDGAGTTPSPGLQPAHLTFPLDYHLNQPFIFVLRDTDTGALLFIGKILDPRGP
[7]; initial set of experiments
  difference in number of TUNEL-positive cells, intravitreally-injected control eyes versus intravitreally-injected PEDF eyes: no statistically significant difference
[7]; initial set of experiments, intravitreal 2.5 μg, control 23.3
  Number of TUNEL-Positive Cells, Mean: 16.9 TUNEL-positive cells per millimeter of tissue
[7]; initial set of experiments, intravitreal 5.0 μg, control 23.3
  Number of TUNEL-Positive Cells, Mean: 28.4 TUNEL-positive cells per millimeter of tissue
[7]; initial set of experiments, subretinal 2.5 μg, control 63.8
  Number of TUNEL-Positive Cells, Mean: 17.6±15.5 TUNEL-positive cells per millimeter of tissue and 17.7 TUNEL-positive cells per millimeter of tissue
[7]; initial set of experiments, subretinal 5.0 μg, control 63.8
  Number of TUNEL-Positive Cells, Mean: 30.4±18.1 TUNEL-positive cells per millimeter of tissue and 30.4 TUNEL-positive cells per millimeter of tissue
[7]; larger sample set, either subretinally or intravitreally
  effect on photoreceptor cell death following retinal detachment as measured using TUNEL: no significant effect
[7]; second set of experiments
  difference in number of TUNEL-positive cells, intravitreally-injected control eyes versus intravitreally-injected PEDF eyes: no statistically significant difference
[7]; second set of experiments, intravitreal 5.0 μg, control 30.2
  Number of TUNEL-Positive Cells, Mean: 30.3 TUNEL-positive cells per millimeter of tissue
[8]
  effect on mRNA levels of bFGF, TNF-alpha, IL-1 beta, or any of the cytokines measured: does not significantly alter

B2: IL-1 beta: rat recombinant IL-1 beta administered subretinally (protein, UniProt Q63264 117-268, looked up)
Interleukin-1 beta: VPIRQLHCRLRDEQQKCLVLSDPCELKALHLNGQNISQQVVFSMSFVQGETSNDKIPVALGLKGLNLYLSCVMKDGTPTLQLESVDPKQYPKKKMEKRFVFNKIEVKTKVEFESAQFPNWYISTSQAEHRPVFLGNSNGRDIVDFTMEPVSS
[5]
  number of TUNEL-positive cells in the ONL: did not change significantly
